Experimental findings from patent US20190134005A1 (BioMarin Pharmaceutical Inc., priority 2016, published 2019) are described below.

In general, IC50 refers to the concentration needed to halve the response being measured. Read a low IC50 as greater potency.

SMILES strings stand for the structures.

The target of this assay is T1, human CGT (Homo sapiens, UniProt Q16880).
T1 sequence (Q16880 21-541): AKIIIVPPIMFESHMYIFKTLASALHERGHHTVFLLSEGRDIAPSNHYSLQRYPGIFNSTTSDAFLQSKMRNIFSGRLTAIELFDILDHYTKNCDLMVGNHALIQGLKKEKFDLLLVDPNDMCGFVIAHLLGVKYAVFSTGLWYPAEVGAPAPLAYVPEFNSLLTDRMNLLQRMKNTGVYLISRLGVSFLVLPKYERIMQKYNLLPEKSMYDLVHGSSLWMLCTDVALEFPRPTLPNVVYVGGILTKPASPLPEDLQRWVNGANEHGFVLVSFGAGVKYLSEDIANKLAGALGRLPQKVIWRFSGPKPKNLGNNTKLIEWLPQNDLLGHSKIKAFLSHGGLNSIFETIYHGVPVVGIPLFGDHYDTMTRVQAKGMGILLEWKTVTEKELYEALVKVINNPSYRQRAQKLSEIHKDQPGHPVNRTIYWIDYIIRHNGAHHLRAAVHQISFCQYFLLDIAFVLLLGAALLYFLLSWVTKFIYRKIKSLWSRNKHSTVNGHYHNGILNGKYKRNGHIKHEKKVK
Description: CGT Enzyme Assay (Biological Example 2, RapidFire/MS/MS method with 0.01% Tween 80 added). The assay is classed as biochemical. The note with it: enzymatic assay, CHO/CGT lysate. Summed up:
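Lysate of CHO cells transfected with full-length human CGT, 0.5% DMSO final, 0.01% Tween 80 added; reactions stopped with methanol:acetonitrile holding internal standard. C6-NBD-dihydro-galactosylceramide and C6-NBD-dihydro-ceramide measured by RapidFire/MS/MS (ESI negative), product peak area normalized to internal standard.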

Take `CCC[C@@]1(C)[C@H](c2cccc(C#N)c2)N(c2ccc(Cl)cc2)C(=O)N1c1ccc(Cl)cc1` [Example 33-2, 3-((4S,5S)-1,3-bis(4-chlorophenyl)-5-methyl-2-oxo-5-propylimidazolidin-4-yl)benzonitrile]: the IC50 was in the range of 1 to 10 µM.

Compound `CCC[C@]1(C)[C@H](c2cccc(C#N)c2)N(c2ccc(Cl)cc2)C(=O)N1c1ccc(Cl)cc1` [Example 33-3, 3-((4S,5R)-1,3-bis(4-chlorophenyl)-5-methyl-2-oxo-5-propylimidazolidin-4-yl)benzonitrile] showed an IC50 of 1 to 10 µM.

In the case of `CCC[C@@]1(C)[C@@H](c2cccc(C#N)c2)N(c2ccc(Cl)cc2)C(=O)N1c1ccc(Cl)cc1` [Example 33-4, 3-((4R,5S)-1,3-bis(4-chlorophenyl)-5-methyl-2-oxo-5-propylimidazolidin-4-yl)benzonitrile], the IC50 is below 1 µM.

In turn, `CC[C@@]1(C)[C@H](c2cccc(C#N)c2)N(c2ccc(Cl)cc2)C(=O)N1c1ccc(Cl)cc1` [Example 34-1, 3-((4S,5S)-1,3-bis(4-chlorophenyl)-5-ethyl-5-methyl-2-oxoimidazolidin-4-yl)benzonitrile] returned an IC50 below 1 µM.

Compound `CC[C@]1(C)[C@@H](c2cccc(C#N)c2)N(c2ccc(Cl)cc2)C(=O)N1c1ccc(Cl)cc1` [Example 34-2, 3-((4R,5R)-1,3-bis(4-chlorophenyl)-5-ethyl-5-methyl-2-oxoimidazolidin-4-yl)benzonitrile] yielded an IC50 of 1 to 10 µM.

In the case of `CC[C@@]1(C)[C@@H](c2cccc(C#N)c2)N(c2ccc(Cl)cc2)C(=O)N1c1ccc(Cl)cc1` [Example 34-3, 3-((4R,5S)-1,3-bis(4-chlorophenyl)-5-ethyl-5-methyl-2-oxoimidazolidin-4-yl)benzonitrile], the IC50 is below 1 µM.

For `CC[C@]1(C)[C@H](c2cccc(C#N)c2)N(c2ccc(Cl)cc2)C(=O)N1c1ccc(Cl)cc1` [Example 34-4, 3-((4S,5R)-1,3-bis(4-chlorophenyl)-5-ethyl-5-methyl-2-oxoimidazolidin-4-yl)benzonitrile], the IC50 was 10 to 30 µM.

In turn, `Cc1ccc(N2C(=O)N(c3ccc(C)cc3)C3(CCCC3)[C@H]2c2cccc(OC(F)(F)F)c2)cc1` [Example 35-1, (R)-1,3-di-p-tolyl-4-(3-(trifluoromethoxy)phenyl)-1,3-diazaspiro[4.4]nonan-2-one] showed an IC50 of 1 to 10 µM.

Compound `Cc1ccc(N2C(=O)N(c3ccc(C)cc3)C3(CCCC3)[C@@H]2c2cccc(OC(F)(F)F)c2)cc1` [Example 35-2, (S)-1,3-di-p-tolyl-4-(3-(trifluoromethoxy)phenyl)-1,3-diazaspiro[4.4]nonan-2-one] came in with an IC50 below 1 µM.

Take `N#Cc1ccc(N2C(=O)N(c3ccc(C#N)cc3)C3(COC3)[C@H]2c2cccc(OC(F)(F)F)c2)cc1` [Example 36-1]: the IC50 was 10 to 30 µM.

For the compound `N#Cc1ccc(N2C(=O)N(c3ccc(C#N)cc3)C3(COC3)[C@@H]2c2cccc(OC(F)(F)F)c2)cc1` [Example 36-2], the IC50 is below 1 µM.

In turn, `COC[C@@]1(C)[C@@H](c2cccc(OC(F)(F)F)c2)N(c2ccc(Cl)cc2)C(=O)N1c1ccc(Cl)cc1` [Example 37-1, (4R,5R)-1,3-bis(4-chlorophenyl)-4-(methoxymethyl)-4-methyl-5-(3-(trifluoromethoxy)phenyl)imidazolidin-2-one] showed an IC50 of 1 to 10 µM.

For the compound `COC[C@]1(C)[C@H](c2cccc(OC(F)(F)F)c2)N(c2ccc(Cl)cc2)C(=O)N1c1ccc(Cl)cc1` [Example 37-2, (4S,5S)-1,3-bis(4-chlorophenyl)-4-(methoxymethyl)-4-methyl-5-(3-(trifluoromethoxy)phenyl)imidazolidin-2-one], the IC50 is below 1 µM.

`COC[C@@]1(C)[C@@H](c2cccc(C#N)c2)N(c2ccc(Cl)cc2)C(=O)N1c1ccc(Cl)cc1` [Example 38-1, 3-((4R,5R)-1,3-bis(4-chlorophenyl)-5-(methoxymethyl)-5-methyl-2-oxoimidazolidin-4-yl)benzonitrile]: the IC50 is 1 to 10 µM.

`COC[C@]1(C)[C@H](c2cccc(C#N)c2)N(c2ccc(Cl)cc2)C(=O)N1c1ccc(Cl)cc1` [Example 38-2, 3-((4S,5S)-1,3-bis(4-chlorophenyl)-5-(methoxymethyl)-5-methyl-2-oxoimidazolidin-4-yl)benzonitrile] showed an IC50 below 1 µM.

Compound `C[C@@]1(C(F)(F)F)[C@H](c2cccc(OC(F)(F)F)c2)N(c2ccc(C#N)cc2)C(=O)N1c1ccc(C#N)cc1` [Example 39-1, 4,4′-((4S,5S)-4-methyl-2-oxo-5-(3-(trifluoromethoxy)phenyl)-4-(trifluoromethyl)imidazolidine-1,3-diyl)dibenzonitrile] showed an IC50 below 1 µM.

In turn, `C[C@]1(C(F)(F)F)[C@@H](c2cccc(OC(F)(F)F)c2)N(c2ccc(C#N)cc2)C(=O)N1c1ccc(C#N)cc1` [Example 39-2, 4,4′-((4R,5R)-4-methyl-2-oxo-5-(3-(trifluoromethoxy)phenyl)-4-(trifluoromethyl)imidazolidine-1,3-diyl)dibenzonitrile] displayed an IC50 of 10 to 30 µM.

For `CC1(C)[C@@H](c2cccc(OC(F)(F)F)c2)N(c2ccc(C#N)cc2)C(=O)N1c1ccc(Cl)cc1` [Example 40-1, (R)-4-(3-(4-chlorophenyl)-4,4-dimethyl-2-oxo-5-(3-(trifluoromethoxy)phenyl)imidazolidin-1-yl)benzonitrile], the IC50 was in the range of 10 to 30 µM.

In turn, `CC1(C)[C@H](c2cccc(OC(F)(F)F)c2)N(c2ccc(C#N)cc2)C(=O)N1c1ccc(Cl)cc1` [Example 40-2, (S)-4-(3-(4-chlorophenyl)-4,4-dimethyl-2-oxo-5-(3-(trifluoromethoxy)phenyl)imidazolidin-1-yl)benzonitrile] had an IC50 below 1 µM.

In turn, `CC1(C)[C@@H](c2cccc(OC(F)(F)F)c2)N(c2ccc(Cl)cc2)C(=O)N1c1ccc(C#N)cc1` [Example 41-1, (R)-4-(3-(4-chlorophenyl)-5,5-dimethyl-2-oxo-4-(3-(trifluoromethoxy)phenyl)imidazolidin-1-yl)benzonitrile] returned an IC50 of 10 to 30 µM.

`CC1(C)[C@H](c2cccc(OC(F)(F)F)c2)N(c2ccc(Cl)cc2)C(=O)N1c1ccc(C#N)cc1` [Example 41-2, (S)-4-(3-(4-chlorophenyl)-5,5-dimethyl-2-oxo-4-(3-(trifluoromethoxy)phenyl)imidazolidin-1-yl)benzonitrile] displayed an IC50 below 1 µM.

`Cc1ccc(N2C(=O)N(c3ccc(C#N)cc3)C3(COC3)[C@H]2c2cccc(OC(F)(F)F)c2)cc1` [Example 43-1, (R)-4-(6-oxo-7-(p-tolyl)-8-(3-(trifluoromethoxy)phenyl)-2-oxa-5,7-diazaspiro[3.4]octan-5-yl)benzonitrile] had an IC50 of 1 to 10 µM.

The compound `Cc1ccc(N2C(=O)N(c3ccc(C#N)cc3)C3(COC3)[C@@H]2c2cccc(OC(F)(F)F)c2)cc1` [Example 43-2, (S)-4-(6-oxo-7-(p-tolyl)-8-(3-(trifluoromethoxy)phenyl)-2-oxa-5,7-diazaspiro[3.4]octan-5-yl)benzonitrile] displayed a half-maximal inhibitory concentration (IC50) below 1 µM.

`C[C@@]1(C(F)(F)F)[C@H](c2cccc(OC(F)(F)F)c2)N(c2ccc(Br)cc2)C(=O)N1c1ccc(C#N)cc1` [Example 44-1, 4-((4S,5S)-3-(4-bromophenyl)-5-methyl-2-oxo-4-(3-(trifluoromethoxy)phenyl)-5-(trifluoromethyl)imidazolidin-1-yl)benzonitrile] yielded an IC50 of 1 to 10 µM.

As to `C[C@]1(C(F)(F)F)[C@@H](c2cccc(OC(F)(F)F)c2)N(c2ccc(Br)cc2)C(=O)N1c1ccc(C#N)cc1` [Example 44-2, 4-((4R,5R)-3-(4-bromophenyl)-5-methyl-2-oxo-4-(3-(trifluoromethoxy)phenyl)-5-(trifluoromethyl)imidazolidin-1-yl)benzonitrile], the IC50 was below 1 µM.

Compound `N#Cc1ccc(N2C(=O)N(c3ccc(Cl)cc3)[C@H](c3cccc(OC(F)(F)F)c3)C23COC3)cc1` [Example 46-1, (R)-4-(7-(4-chlorophenyl)-6-oxo-8-(3-(trifluoromethoxy)phenyl)-2-oxa-5,7-diazaspiro[3.4]octan-5-yl)benzonitrile] showed an IC50 below 1 µM.

The compound `N#Cc1ccc(N2C(=O)N(c3ccc(Cl)cc3)[C@@H](c3cccc(OC(F)(F)F)c3)C23COC3)cc1` [Example 46-2, (S)-4-(7-(4-chlorophenyl)-6-oxo-8-(3-(trifluoromethoxy)phenyl)-2-oxa-5,7-diazaspiro[3.4]octan-5-yl)benzonitrile] had an IC50 of 1 to 10 µM.

Consider `N#Cc1ccc(N2C(=O)N(c3ccc(Cl)cc3)C3(COC3)[C@H]2c2cccc(OC(F)(F)F)c2)cc1` [Example 47-1, (R)-4-(5-(4-chlorophenyl)-6-oxo-8-(3-(trifluoromethoxy)phenyl)-2-oxa-5,7-diazaspiro[3.4]octan-7-yl)benzonitrile], for which the IC50 was in the range of 10 to 30 µM.

Turning to `N#Cc1ccc(N2C(=O)N(c3ccc(Cl)cc3)C3(COC3)[C@@H]2c2cccc(OC(F)(F)F)c2)cc1` [Example 47-2, (S)-4-(5-(4-chlorophenyl)-6-oxo-8-(3-(trifluoromethoxy)phenyl)-2-oxa-5,7-diazaspiro[3.4]octan-7-yl)benzonitrile], the IC50 is below 1 µM.

For `Cc1ccc(N2C(=O)N(c3ccc(C#N)cc3)[C@H](c3cccc(C#N)c3)C2(C)C)cc1` [Example 48-1, (R)-3-(3-(4-cyanophenyl)-5,5-dimethyl-2-oxo-1-(p-tolyl)imidazolidin-4-yl)benzonitrile], the IC50 fell in the range of 10 to 30 µM.
